Drawing on patent US20230075856A1, “CYCLIC SULFAMIDE COMPOUNDS FOR TREATMENT OF HBV” (Assembly Biosciences, Inc., priority 2018, published 2023), this text covers EC50 for 40 compounds.

A value given as a limit tells only on which side of the number the result lay.

The first assay has as its system HBV viral load production from HepAD38 cells. In words: Viral production from HepAD38 cells: viral load in supernatant by qPCR of the HBV core sequence. Particulars: 5 days incubation, qPCR of supernatant HBV DNA vs DMSO control, read-out: viral load lowering EC50 (Activity). It is filed as cell-based. In short, it runs like this: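 HepAD38 cells seeded at 50,000/well in tetracycline-free medium with 2% FBS, treated with compounds (final top concentration 10 μM) for 5 days at 37 °C. Supernatant HBV DNA quantified by TaqMan qPCR of core sequence against HBV DNA standards, relative to DMSO controls; EC50 by four-parameter logistic fit.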
A general note: Real-time PCR tracks product formation cycle by cycle.
With `CN1C(C(=O)Nc2ccc(F)c(Cl)c2)CC(C(=O)NCc2cc(-c3ccc(F)cc3)n(C)n2)NS1(=O)=O` (single isomer, unassigned) [1151-ISOMER-B, N3-(3-chloro-4-fluoro-phenyl)-N5-[[5-(4-fluorophenyl)-1-methyl-pyrazol-3-yl]methyl]-2-methyl-1,1-dioxo-1,2,6-thiadiazinane-3,5-dicarboxamide], the EC50 lay in the range of 100 to 10000 nM. Take “N3-(3-chloro-4-fluoro-phenyl)-2-methyl-1,1-dioxo-N5-[(5-phenylisoxazol-3-yl)methyl]- [1149-ISOMER-B]”: the concentration for a half-maximal effect (EC50) is 100 to 10000 nM. With `Cc1ccccc1-c1nc(C)c(CNC(=O)C2CC(C(=O)Nc3ccc(F)c(Cl)c3)N(C)S(=O)(=O)N2)s1` (single isomer, unassigned) [1017-ISOMER-B, N3-(3-chloro-4-fluoro-phenyl)-2-methyl-N5-[[4-methyl-2-(o-tolyl)thiazol-5-yl]methyl]-1,1-dioxo-1,2,6-thiadiazinane-3,5-dicarboxamide], the EC50 was in the range of 100 to 10000 nM. On to `CN1C(C(=O)Nc2ccc(F)c(Cl)c2)CC(C(=O)NC2CCN(c3ccccn3)CC2)NS1(=O)=O` (single isomer, unassigned) [Compound 769-ISOMER-B, N3-(3-chloro-4-fluoro-phenyl)-2-methyl-1,1-dioxo-N5-[1-(2-pyridyl)-4-piperidyl]-1,2,6-thiadiazinane-3,5-dicarboxamide], for which the concentration for a half-maximal effect (EC50) lay in the range of 100 to 10000 nM. As for `CN1C(C(=O)Nc2ccc(F)c(Cl)c2)CC(C(=O)NCc2cn(-c3ccccc3)cn2)NS1(=O)=O` (single isomer, unassigned) [1145-ISOMER-B, N3-(3-chloro-4-fluoro-phenyl)-2-methyl-1,1-dioxo-N5-[(1-phenylimidazol-4-yl)methyl]-1,2,6-thiadiazinane-3,5-dicarboxamide], the 50% effective concentration (EC50) fell in the range of 100 to 10000 nM. For `CN1C(C(=O)Nc2ccc(F)c(Cl)c2)CC(C(=O)NC2CCN(c3cc(Cl)ccn3)CC2)NS1(=O)=O` (single isomer, unassigned) [Compound 974-ISOMER-B, N3-(3-chloro-4-fluoro-phenyl)-N5-[1-(4-chloro-2-pyridyl)-4-piperidyl]-2-methyl-1,1-dioxo-1,2,6-thiadiazinane-3,5-dicarboxamide], the EC50 lay in the range of 50 to 100 nM.

As for `CN1C(C(=O)Nc2ccc(F)c(Cl)c2)CC(C(=O)NCc2cc(-c3ccccc3Cl)no2)NS1(=O)=O` (single isomer, unassigned; isomer-a) [1025-ISOMER-A, N3-(3-chloro-4-fluro-phenyl)-N5-[[3-(2-chlorophenyl)isoxazol-5-yl]methyl]-2-methyl-1,1-dioxo-1,2,6-thiadiazinane-3,5-dicarboxamide], the EC50 was below 50 nM. Regarding `CN1C(C(=O)Nc2ccc(F)c(Cl)c2)CC(C(=O)NC2CCN(c3ccnc(-c4ccccc4)c3)CC2)NS1(=O)=O` (single isomer, unassigned) [1050-ISOMER-B, N3-(3-chloro-4-fluoro-phenyl)-2-methyl-1,1-dioxo-N5-[1-(2-phenyl-4-pyridyl)-4-piperidyl]-1,2,6-thiadiazinane-3,5-dicarboxamide], the EC50 is below 50 nM.

The same assay, now with this note: Hepatitis B virus, HePAD38, 120 h, 5 days incubation, qPCR of supernatant HBV DNA vs DMSO control, read-out: viral load lowering EC50 (Activity).
For the compound `COC(=O)N1CCC(NC(=O)C2CC(C(=O)Nc3ccc(F)c(C#N)c3)N(C)S(=O)(=O)N2)CC1` (stereo not shown) [Compound 770], the concentration giving a half-maximal response (EC50) lay in the range of 50 to 100 nM.

`CN1C(C(=O)Nc2ccc(F)c(C#N)c2)CC(C(=O)NCc2cnc(C(F)(F)F)s2)NS1(=O)=O` (stereo not shown) [Compound 772]: the EC50 was below 50 nM. Same read-out and setting: the result for `CN1C(C(=O)Nc2ccc(F)c(Cl)c2)CC(C(=O)NCCCc2ccccc2)NS1(=O)=O` (stereo not shown) [Compound 726] reads 50 to 100 nM; that for `CN1C(C(=O)Nc2ccc(F)c(Cl)c2)C[C@@H](C(=O)N[C@H](c2ccccc2)c2cnc(-c3ccccc3Cl)s2)NS1(=O)=O` (single isomer, unassigned) [1068-ISOMER-C], below 50 nM.

As for `CCn1nccc1CNC(=O)C1CC(C(=O)Nc2ccc(F)c(Cl)c2)N(C)S(=O)(=O)N1` (stereo not shown) [Compound 744], the EC50 lay in the range of 50 to 100 nM. For `Cc1cn(-c2ccccc2)nc1CNC(=O)C1CC(C(=O)Nc2ccc(F)c(C#N)c2)N(C)S(=O)(=O)N1` (single isomer, unassigned) [1134-ISOMER-A, N3-(3-cyano-4-fluoro-phenyl)-2-methyl-N5-[(4-methyl-1-phenyl-pyrazol-3-yl)methyl]-1,1-dioxo-1,2,6-thiadiazinane-3,5-dicarboxamide], the EC50 lay in the range of 100 to 10000 nM. On to `Cc1nc(Cl)sc1CNC(=O)C1CC(C(=O)Nc2ccc(F)c(Cl)c2)N(C)S(=O)(=O)N1` (stereo not shown) [Compound 1031], for which the EC50 is below 50 nM.

As to `Cc1cccc(CNC(=O)C2CC(C(=O)Nc3ccc(F)c(Cl)c3)N(C)S(=O)(=O)N2)n1` (stereo not shown) [Compound 716], the EC50 was below 50 nM. On the same count and under the same terms, the result for `Cc1cccnc1N1CCC(NC(=O)C2CC(C(=O)Nc3ccc(F)c(Cl)c3)N(C)S(=O)(=O)N2)CC1` (stereo not shown) [Compound 1074] reads below 50 nM; that for `CN1C(C(=O)Nc2ccc(F)c(Cl)c2)CC(C(=O)NC2CCN(c3ccnc(Cl)n3)CC2)NS1(=O)=O` (stereo not shown) [Compound 1054], below 50 nM; that for `C[C@H](NC(=O)C1CC(C(=O)Nc2ccc(F)c(Cl)c2)N(C)S(=O)(=O)N1)c1ccc(C(F)(F)F)cc1` (single isomer, unassigned) [493-S-ISOMER-A], below 50 nM. Consider `CN1C(C(=O)Nc2ccc(F)c(Cl)c2)CC(C(=O)NCc2sc(Cl)nc2C(F)(F)F)NS1(=O)=O` (stereo not shown) [Compound 1062], for which the 50% effective concentration (EC50) was 50 to 100 nM. `Cc1nc(-c2ccccc2)sc1CNC(=O)C1CC(C(=O)Nc2ccc(F)c(Cl)c2)N(C)S(=O)(=O)N1` (single isomer, unassigned) [Compound 914-ISOMER-A, N3-(3-chloro-4-fluoro-phenyl)-2-methyl-N5-[(4-methyl-2-phenyl-thiazol-5-yl)methyl]-1,1-dioxo-1,2,6-thiadiazinane-3,5-dicarboxamide]: the 50% effective concentration (EC50) was below 50 nM.

With `CN1C(C(=O)Nc2ccc(F)c(Cl)c2)CC(C(=O)NCc2sc(-c3ccccc3)nc2C(F)(F)F)NS1(=O)=O` (stereo not shown) [Compound 1063], the EC50 is below 50 nM. Turning to `Cc1cc(CNC(=O)C2CC(C(=O)Nc3ccc(F)c(Cl)c3)N(C)S(=O)(=O)N2)n(C)n1` (stereo not shown) [Compound 482], the EC50 was below 50 nM. As to `Cc1nc(-c2ccc(F)cc2F)sc1CNC(=O)C1CC(C(=O)Nc2ccc(F)c(Cl)c2)N(C)S(=O)(=O)N1` (single isomer, unassigned) [1083-ISOMER-A, N3-(3-chloro-4-fluoro-phenyl)-N5-[[2-(2,4-difluorophenyl)-4-methyl-thiazol-5-yl]methyl]-2-methyl-1,1-dioxo-1,2,6-thiadiazinane-3,5-dicarboxamide], the EC50 is below 50 nM. Turning to `CN1C(C(=O)Nc2ccc(F)c(Cl)c2)CC(C(=O)NC2CCN(c3ccnc(Cl)c3)C2)NS1(=O)=O` (stereo not shown) [Compound 1055], the EC50 is below 50 nM. Still for that read-out and setting: with `Cc1cn(-c2ccccc2)nc1CNC(=O)C1CC(C(=O)Nc2ccc(F)c(Cl)c2)N(C)S(=O)(=O)N1` (single isomer, unassigned) [1057-ISOMER-A, N3-(3-chloro-4-fluoro-phenyl)-2-methyl-N5-[(4-methyl-1-phenyl-pyrazol-3-yl)methyl]-1,1-dioxo-1,2,6-thiadiazinane-3,5-dicarboxamide] the figure was below 50 nM; with `CN1C(C(=O)Nc2ccc(F)c(Cl)c2)CC(C(=O)NCc2ccccn2)NS1(=O)=O` (stereo not shown) [Compound 739], 50 to 100 nM; with `CN1C(C(=O)Nc2ccc(F)c(Cl)c2)CC(C(=O)NC2CCN(C(=O)OCCCN3CCCCC3)CC2)NS1(=O)=O` (stereo not shown) [Compound 964], 100 to 10000 nM. For `CN1C(C(=O)Nc2ccc(F)c(C#N)c2)CC(C(=O)NCc2cccc(Cl)c2)NS1(=O)=O` (stereo not shown) [Compound 837], the EC50 is below 50 nM. `Cc1cn(-c2ccc(F)cc2)nc1CNC(=O)C1CC(C(=O)Nc2ccc(F)c(Cl)c2)N(C)S(=O)(=O)N1` (stereo not shown) [Compound 1141]: the EC50 is below 50 nM. `Cc1cn(-c2ccccc2F)nc1CNC(=O)C1CC(C(=O)Nc2ccc(F)c(Cl)c2)N(C)S(=O)(=O)N1` (single isomer, unassigned) [1142-ISOMER-A, N3-(3-chloro-4-fluoro-phenyl)-N5-[[1-(2-fluorophenyl)-4-methyl-pyrazol-3-yl]methyl]-2-methyl-1,1-dioxo-1,2,6-thiadiazinane-3,5-dicarboxamide]: the EC50 is below 50 nM. Same read-out and setting: with `CC(NC(=O)C1CC(C(=O)Nc2ccc(F)c(Cl)c2)N(C)S(=O)(=O)N1)c1csc(-c2ccccc2Cl)n1` (stereo not shown) [Compound 1029] the figure was 100 to 10000 nM.

Consider `CN1C(C(=O)Nc2ccc(F)c(Cl)c2)CC(C(=O)NCc2ccccc2F)NS1(=O)=O` (stereo not shown) [Compound 819], for which the EC50 was below 50 nM.

Take `CN1C(C(=O)Nc2ccc(F)c(C#N)c2)CC(C(=O)NCc2ccccc2)NS1(=O)=O` (stereo not shown) [Compound 833]: the 50% effective concentration (EC50) lay in the range of 100 to 10000 nM. Same read-out and setting: with `C[C@@H](NC(=O)C1CC(C(=O)Nc2ccc(F)c(Cl)c2)N(C)S(=O)(=O)N1)C1CCCCC1` (stereo partly shown) [Compound 741] the figure was 50 to 100 nM; with `CN1C(C(=O)Nc2ccc(F)c(C#N)c2)CC(C(=O)NCc2ccc(Cl)cc2)NS1(=O)=O` (stereo not shown) [Compound 836], 50 to 100 nM; with `Cc1nc(CNC(=O)C2CC(C(=O)Nc3ccc(F)c(Cl)c3)N(C)S(=O)(=O)N2)sc1-c1ccccc1Cl` (stereo not shown) [Compound 1071], below 50 nM. Still for that read-out and setting: with `CN1C(C(=O)Nc2ccc(F)c(Cl)c2)CC(C(=O)NCc2cnc(-c3ccc(O)cc3)s2)NS1(=O)=O` (stereo not shown) [Compound 924] the figure was below 50 nM. Regarding `CN1C(C(=O)Nc2ccc(F)c(Cl)c2)CC(C(=O)NCc2cn(-c3ccccc3)cn2)NS1(=O)=O` (single isomer, unassigned) [1145-ISOMER-A, N3-(3-chloro-4-fluoro-phenyl)-2-methyl-1,1-dioxo-N5-[(1-phenylimidazol-4-yl)methyl]-1,2,6-thiadiazinane-3,5-dicarboxamide], the half-maximal effective concentration (EC50) is below 50 nM. The same measure, in the same setting: the result for `C[C@H](NC(=O)C1CC(C(=O)Nc2ccc(F)c(C#N)c2)N(C)S(=O)(=O)N1)c1ccc(F)cc1` (stereo partly shown) [Compound 774] reads 100 to 10000 nM.

What is called EC50 is the concentration needed to bring the measured effect to its halfway point.
